We go through five compounds from patent publication US9630931B2, “Pharmaceutically active pyrazine derivatives” (Sentinel Oncology Limited, priority 2011, dated 2017).

Counter-ions that a name gives are not always drawn.

One test deals with MOLM-13 cells. As to the kind of experiment: Inhibition of cell growth in MOLM-13 cells (Alamar blue, 72 h). It is filed as cell-based. The following applies: Homo sapiens, 72 h incubation. As to the method:
(§1) Studies were carried out to test the effect of compounds on the inhibition of cell growth in MOLM-13 and MV4-11 cells.
(§2) The following protocol was used:
(§3) (a) Cells were seeded in 96-well plates at cell densities of 2500/well (MOLM-13) and 10,000/well (MV4-11). Cells were then incubated overnight prior to addition of compound or vehicle control.
(§4) (b) Test compounds were prepared from 10 mM DMSO stocks to give a final concentration range of 10 μM, 3 μM, 1 μM, 0.3 μM, […], 0.03 μM, 0.01 μM, […] vehicle control. The DMSO content was constant at 0.1%.
(§5) (c) Test compounds were incubated with the cells for 72 h at 37° C. 5% CO2 in a humidified atmosphere.
(§6) (d) Alamar blue 10% (v/v) was then added and incubated for a further 4 h, and fluorescent product detected using the BMG FLUOstar plate reader.
(§7) (e) Media only background values were subtracted and the data analysed using a 4-parameter logistic equation in GraphPad Prism.
In general terms: Resazurin is reduced to fluorescent resorufin, in cell work by metabolically active cells.

The target in the next test is Chk-1 kinase (Homo sapiens (Human), UniProt O14757). As to the kind of experiment: Chk-1 kinase inhibiting activity (33P-ATP radiometric filter assay, CHKtide substrate). The following applies: recombinant full length GST-tagged CHK-1 0.5 nM, CHKtide 20 μM, 120 minutes at room temperature; read-out: IC50 against Chk-1 kinase. Type of test: biochemical. As to the method:
The compounds of the invention were tested for activity against Chk-1 kinase using the materials and protocols set out below.
Base Reaction buffer: 20 mM Hepes (pH 7.5), 10 mM MgCl2, 1 mM EGTA, 0.02% Brij35, 0.02 mg/ml BSA, 0.1 mM Na3VO4, 2 mM DTT, 1% DMSO
Required cofactors are added individually to each kinase reaction
(i) Prepare indicated substrate in freshly prepared Base Reaction Buffer
(ii) Deliver any required cofactors to the substrate solution above
(iii) Deliver indicated kinase into the substrate solution and gently mix
(iv) Deliver compounds in DMSO into the kinase reaction mixture
(v) Deliver ^33P-ATP (specific activity 0.01 μCi/μl final) into the reaction mixture to initiate the reaction.
(vi) Incubate kinase reaction for 120 minutes at room temperature
(vii) Reactions are spotted onto P81 ion exchange paper (Whatman #3698-915)
(viii) Wash filters extensively in 0.1% phosphoric acid.
(ix) Dry filters and measure counts in scintillation counter
Recombinant full length construct, N-terminal GST tagged, purified from insect cells.
No special measures were taken to activate this kinase.
Final concentration in assay=0.5 nM
Peptide sequence: [[…]]
Final concentration in assay=20 μM
No additional cofactors are added to the reaction mixture
From the results obtained by following the above protocol, the IC50 values against Chk-1 kinase of a number of the compounds of the Examples were determined and these are shown in Table 3.

In another test the test system is MV4-11 cells. As to the kind of experiment: Inhibition of cell growth in MV4-11 cells (Alamar blue, 72 h). The following applies: Homo sapiens, 72 h incubation. Type of test: cell-based. As to the method: as §1, §2, §3, §4, §5, §6, §7
The test system of test [1] is MYC oncogene driven murine spontaneous cancer model. The following applies: cited from earlier work.
Test [2] has as its system thirty ovarian cancer cell lines. The following applies: cited from earlier work.
For test [3], the system named is triple negative negative breast cancer cells. The following applies: cited from earlier work.

Sequence of Chk-1 kinase (O14757 whole entry): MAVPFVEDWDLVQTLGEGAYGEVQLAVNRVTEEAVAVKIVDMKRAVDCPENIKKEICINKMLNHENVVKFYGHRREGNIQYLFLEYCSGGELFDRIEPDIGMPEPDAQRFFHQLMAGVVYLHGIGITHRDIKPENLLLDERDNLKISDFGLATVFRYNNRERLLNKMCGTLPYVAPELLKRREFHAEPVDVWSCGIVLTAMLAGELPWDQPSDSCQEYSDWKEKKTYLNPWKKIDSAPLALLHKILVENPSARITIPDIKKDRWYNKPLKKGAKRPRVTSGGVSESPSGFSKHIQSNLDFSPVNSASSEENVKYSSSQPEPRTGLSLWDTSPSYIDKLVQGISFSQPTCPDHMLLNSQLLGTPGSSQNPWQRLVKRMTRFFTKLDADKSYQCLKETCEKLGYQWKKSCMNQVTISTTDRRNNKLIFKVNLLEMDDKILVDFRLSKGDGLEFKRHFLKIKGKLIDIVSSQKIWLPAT

Consider `COc1cc(CCNCCN2CCN(C)CC2)c(Cl)cc1NC(=O)Nc1cnc(C#N)cn1` [Example 9, 1-(5-Chloro-2-methoxy-4-{2-[2-(4-methyl-piperazin-1-yl)-ethylamino]-ethyl}-phenyl)-3-(5-cyano-pyrazin-2-yl)-urea hydrochloride], for which the figures for the IC50 with MOLM-13 cells, on Chk-1 kinase and in the test with MV4-11 cells were 29 nM, 0.69 nM and 56 nM, respectively.
For `COc1cc(CCN[C@@H](C)C2CCN(C(=O)C3CC3)CC2)c(Cl)cc1NC(=O)Nc1cnc(C#N)cn1` [Example 10, 1-(5-Chloro-4-{2-[(S)-1-(1-cyclopropane-carbonyl-piperidin-4-yl)-ethylamino]-ethyl}-2-methoxy-phenyl)-3-(5-cyano-pyrazin-2-yl)-urea hydrochloride] the same measures were 35 nM, 0.65 nM and 80 nM.
For `COc1cc(CCN[C@@H](C)C2CCN(S(C)(=O)=O)CC2)c(Cl)cc1NC(=O)Nc1cnc(C#N)cn1` [Example 11, 1-(5-Chloro-4-{2-[(S)-1-(1-methanesulfonyl-piperidin-4-yl)-ethylamino]-ethyl}-2-methoxy-phenyl)-3-(5-cyano-pyrazin-2-yl)-urea hydrochloride], the IC50 in the test on MOLM-13 cells came to 59 nM; on Chk-1 kinase it was 0.28 nM; in the test with MV4-11 cells, 231 nM.
`N#Cc1cnc(NC(=O)Nc2ccc(CCNCC3CCCCC3)c(Cl)c2)cn1` [Example 12, 1-{3-Chloro-4-[2-(cyclo-hexylmethyl-amino)-ethyl]-phenyl}-3-(5-cyano-pyrazin-2-yl)-urea hydrochloride]: the IC50 came out at 1600 nM in the test with MOLM-13 cells, 30 nM on Chk-1 kinase and 740 nM with MV4-11 cells.
With `Cn1cc(-c2[nH]c3cc(NC(=O)[C@H](N)C4CCCCC4)cc4c3c2C=NNC4=O)cn1` [PF-00477736], the “single agent activity in MYC oncogene driven murine spontaneous cancer model” value in test [1] was “selective single agent activity”. Further, the “growth of ovarian cancer cell lines” value in test [2] is on record as “inhibits the growth”. Moreover, the “growth of triple negative breast cancer cells” value in test [3] was “inhibits the growth”.

The term IC50 denotes the midpoint of a concentration-inhibition curve.
